From PubChem BioAssay AID1963853 (Molecular Pharmacology Branch, DTP, NCI, 2024)

Test system: 266295-075-R-J1-PDC spheroid viability
Experiment: Anticancer human tumor 266295-075-R-J1-PDC patient-derived head and neck squamous carcinoma cell line growth inhibition [POLQ]
Conditions: spheroids with HUVEC and MSC; for IC50: curve of first compound; for viability, T/C: stronger effect = lower value
Method in brief: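 Growth inhibition in 3D: complex spheroids (tumor PDC, HUVEC, MSC) treated with POLQ inhibitor combinations; where Cmax unknown, highest tested concentration 10 microM, except SN-38 at 1 microM.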
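Further: spheroids exposed to compounds for seven days before readout.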

COc1ccc([C@@H](O)c2cc(-c3ncnc4cc(N5CCOCC5)ccc34)c(F)cc2Cl)nn1 + Nc1ccc(C#CCN(C(=O)Cc2ncc(C(F)(F)F)cc2C(F)(F)F)c2ccc(F)cc2)nn1
IC50 (second compound 0.0316 µM): 5250 nM
IC50 (second compound 0.1 µM): 2470 nM
IC50 (second compound 0.316 µM): 4850 nM
IC50 (second compound 1 µM): 2710 nM
IC50 (second compound 3.16 µM): 3240 nM
IC50 (second compound 10 µM): 2490 nM
viability, T/C (second compound 0.0316 µM, first compound 0.0316 µM): 87.8%
viability, T/C (second compound 0.0316 µM, first compound 0.1 µM): 91.7%
viability, T/C (second compound 0.0316 µM, first compound 0.316 µM): 72.4%
viability, T/C (second compound 0.0316 µM, first compound 1 µM): 89%
viability, T/C (second compound 0.0316 µM, first compound 3.16 µM): 59.4%
viability, T/C (second compound 0.0316 µM, first compound 10 µM): 38%
viability, T/C (second compound 0.1 µM, first compound 0.0316 µM): 78.3%
viability, T/C (second compound 0.1 µM, first compound 0.1 µM): 89.7%
viability, T/C (second compound 0.1 µM, first compound 0.316 µM): 71.6%
viability, T/C (second compound 0.1 µM, first compound 1 µM): 73.9%
viability, T/C (second compound 0.1 µM, first compound 3.16 µM): 43.2%
viability, T/C (second compound 0.1 µM, first compound 10 µM): 40%
viability, T/C (second compound 0.316 µM, first compound 0.0316 µM): 93%
viability, T/C (second compound 0.316 µM, first compound 0.1 µM): 94.9%
viability, T/C (second compound 0.316 µM, first compound 0.316 µM): 71.4%
viability, T/C (second compound 0.316 µM, first compound 1 µM): 75.4%
viability, T/C (second compound 0.316 µM, first compound 3.16 µM): 57.4%
viability, T/C (second compound 0.316 µM, first compound 10 µM): 37.7%
viability, T/C (second compound 1 µM, first compound 0.0316 µM): 113%
viability, T/C (second compound 1 µM, first compound 0.1 µM): 120%
viability, T/C (second compound 1 µM, first compound 0.316 µM): 81.1%
viability, T/C (second compound 1 µM, first compound 1 µM): 71%
viability, T/C (second compound 1 µM, first compound 3.16 µM): 49.3%
viability, T/C (second compound 1 µM, first compound 10 µM): 29.6%
viability, T/C (second compound 3.16 µM, first compound 0.0316 µM): 98.6%
viability, T/C (second compound 3.16 µM, first compound 0.1 µM): 109%
viability, T/C (second compound 3.16 µM, first compound 0.316 µM): 82.8%
viability, T/C (second compound 3.16 µM, first compound 1 µM): 65.9%
viability, T/C (second compound 3.16 µM, first compound 3.16 µM): 55%
viability, T/C (second compound 3.16 µM, first compound 10 µM): 38.2%
viability, T/C (second compound 10 µM, first compound 0.0316 µM): 104%
viability, T/C (second compound 10 µM, first compound 0.1 µM): 94.2%
viability, T/C (second compound 10 µM, first compound 0.316 µM): 87.9%
viability, T/C (second compound 10 µM, first compound 1 µM): 61.2%
viability, T/C (second compound 10 µM, first compound 3.16 µM): 46.8%
viability, T/C (second compound 10 µM, first compound 10 µM): 42.6%
